Data taken from paper PMC6720883, “In Vitro Inhibitory Effects of APINACA on Human Major Cytochrome P450, UDP-Glucuronosyltransferase Enzymes, and Drug Transporters” (Molecules, 2019).
pIC50, pKi: −log10 of the molar value. Like-named read-outs stand apart in the source and are kept apart here.

Experiments:
UGT2B7 = UGT2B7 (Homo sapiens, UniProt P16662); assay: Inhibition of UGT2B7-catalyzed naloxone 3-β-D-glucuronidation in human liver microsomes; type: in vitro ADME
Procedure: (§2) The inhibitory effect of APINACA and typical UGT inhibitors on UGT1A1, UGT1A3, UGT1A4, UGT1A6, UGT1A9, and UGT2B7 were evaluated following our previous method by LC–MS/MS after incubation of ultrapooled human liver microsomes with a cocktail of UGT substrates [44]. […] The reactions were initiated by adding UDPGA, and the incubation continued for 60 min at 37 °C in a shaking water bath. The reactions were terminated by adding 50 μL of ice-cold acetonitrile containing internal standards (propofol glucuronide for chenodeoxycholic acid 24-acyl-β-glucuronide and mycophenolic acid glucuronide; and meloxicam for SN-38 glucuronide, trifluoperazine glucuronide, N-acetylserotonin β-D-glucuronide, and naloxone 3-β-D-glucuronide). The incubation mixtures were centrifuged at 13,000× g for 8 min at 4 °C. Next, 50 μL of each supernatant of A and B set was mixed, and aliquots (5 μL) were analyzed by LC–MS/MS. All assays were performed in triplicate, and the average values were used in calculations.
(§3) To measure the time-dependent inhibition, human liver microsomes were preincubated with the various concentrations of APINACA (final concentrations of 0.1–100 μM) and UDPGA for 30 min at 37 °C. Next, the reaction mixtures were incubated with UGT probe substrate cocktail sets for 60 min at 37 °C. The control reaction was performed by adding methanol instead of the test compounds.

UGT1A9 = biological target: T1, UGT1A9 (Homo sapiens, UniProt O60656); assay: Enzyme kinetic analysis of UGT1A9 inhibition (Dixon plot) in human liver microsomes; type: in vitro ADME; design: […]; tissue Corning Life Sciences
T1 sequence (O60656 26-530): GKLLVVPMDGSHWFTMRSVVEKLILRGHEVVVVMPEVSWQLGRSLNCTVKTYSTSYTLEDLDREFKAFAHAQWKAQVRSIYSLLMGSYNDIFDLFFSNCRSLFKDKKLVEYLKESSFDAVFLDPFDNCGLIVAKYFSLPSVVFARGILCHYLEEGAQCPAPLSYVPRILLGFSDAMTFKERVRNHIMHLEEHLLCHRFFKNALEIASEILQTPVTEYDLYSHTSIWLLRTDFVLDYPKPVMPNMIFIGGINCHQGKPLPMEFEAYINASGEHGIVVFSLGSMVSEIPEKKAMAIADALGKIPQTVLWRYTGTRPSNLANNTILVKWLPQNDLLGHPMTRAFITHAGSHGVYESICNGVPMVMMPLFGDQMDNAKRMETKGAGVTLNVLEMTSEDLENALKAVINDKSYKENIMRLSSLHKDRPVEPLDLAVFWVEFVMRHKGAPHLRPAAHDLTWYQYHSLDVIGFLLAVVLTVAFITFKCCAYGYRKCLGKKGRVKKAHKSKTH
Procedure: The reaction was stopped by adding 100 μL of ice cold acetonitrile containing propofol glucuronide (internal standard), and the mixtures were centrifuged at 13,000× g for 4 min.
(§1) 12.5 (Systat Software, Inc.; San Jose, CA, USA). […] 1.1 (Systat Software, Inc.).

OCT1 = biological target: T2, OCT1 (Homo sapiens, UniProt O15245); assay: Uptake of [3-H]methyl-4-phenylpyridinium in HEK293-OCT1 cells; type: in vitro ADME
T2 construct: host or cells: HEK293 (transient overexpression)
T2 sequence (O15245 1-554): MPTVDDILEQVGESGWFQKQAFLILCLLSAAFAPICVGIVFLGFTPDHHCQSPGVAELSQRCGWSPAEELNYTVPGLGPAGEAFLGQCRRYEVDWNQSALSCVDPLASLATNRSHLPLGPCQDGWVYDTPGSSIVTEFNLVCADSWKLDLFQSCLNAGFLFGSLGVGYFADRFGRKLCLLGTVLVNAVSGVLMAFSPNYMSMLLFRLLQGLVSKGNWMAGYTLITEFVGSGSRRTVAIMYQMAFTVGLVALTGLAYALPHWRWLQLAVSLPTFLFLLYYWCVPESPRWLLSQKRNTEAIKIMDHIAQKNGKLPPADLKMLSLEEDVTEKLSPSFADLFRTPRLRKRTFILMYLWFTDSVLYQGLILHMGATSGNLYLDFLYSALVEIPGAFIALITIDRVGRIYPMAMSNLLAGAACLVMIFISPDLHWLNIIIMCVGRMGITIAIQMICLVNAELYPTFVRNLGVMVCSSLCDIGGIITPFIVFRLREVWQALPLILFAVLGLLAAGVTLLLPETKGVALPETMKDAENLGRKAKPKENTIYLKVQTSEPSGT
Procedure: To examine the effects of APINACA and typical inhibitors on transporter activity, the uptake of a probe substrate into HEK293 cells overexpressing the respective solute carrier transporters was measured in the presence of APINACA (final concentrations of 0–250 μM) or typical inhibitors for 5 min. The concentrations and probe substrates were selected as follows: 0.1 μM [3-H]MPP^+ (for OCT1 and OCT2), 0.1 μM [3-H]PAH (for OAT1), 0.1 μM [3-H]ES (for OAT3 and OATP1B1), and 0.1 μM [3-H]EG (for OATP1B3).
as §1

OATP1B3 = OATP1B3 (Homo sapiens, UniProt Q9NPD5)
CYP1A2 = CYP1A2 (Homo sapiens, UniProt P05177); assay: Inhibition of CYP1A2-mediated phenacetin O-deethylase in ultrapooled human liver microsomes (cocktail, LC-MS/MS); type: in vitro ADME
Procedure: The inhibitory potentials (IC50 values) of APINACA and typical CYP inhibitors on CYP 1A2, 2A6, 2C8, 2C9, 2C19, 2D6, and 3A4 activities in pooled human liver microsomes were evaluated following our previous method using a cocktail of CYP substrates, followed by LC–MS/MS [43]. […] After 3 min of preincubation at 37 °C, the reaction mixtures were incubated for 15 min at 37 °C with the addition of NADPH in a shaking water bath. The reaction was stopped by adding 100 μL of ice cold methanol containing internal standards (d9-1′-hydroxybufuralol for 1′-hydroxybufuralol, 4′-hydroxydiclofenac, 7-hydroxycoumarin, 1′-hydroxymidazolam, and 4′-hydroxymephenytoin; ^13C2, ^15N-acetaminophen for acetaminophen and N-desethylamodiaquine). The incubation mixtures were centrifuged at 13,000× g for 8 min at 4 °C, and 50 μL of each supernatant was diluted with 50 μL of water. Aliquots (5 μL) of the diluted supernatants were analyzed by LC–MS/MS. All assays were performed in triplicate, and the average values were used for subsequent calculations.
To measure the time-dependent inhibition, human liver microsomes were preincubated with the various concentrations of APINACA (final concentrations of 0.1−100 μM) and NADPH for 30 min at 37 °C. Next, the reaction mixtures were incubated with a seven-CYP probe substrate cocktail or bupropion for 15 min at 37 °C. […]

UGT1A3 = UGT1A3 (Homo sapiens, UniProt P35503); assay: Inhibition of UGT1A3-catalyzed chenodeoxycholic acid 24-acyl-β-glucuronidation in human liver microsomes; type: in vitro ADME
Sequence of UGT1A3 (P35503 29-534): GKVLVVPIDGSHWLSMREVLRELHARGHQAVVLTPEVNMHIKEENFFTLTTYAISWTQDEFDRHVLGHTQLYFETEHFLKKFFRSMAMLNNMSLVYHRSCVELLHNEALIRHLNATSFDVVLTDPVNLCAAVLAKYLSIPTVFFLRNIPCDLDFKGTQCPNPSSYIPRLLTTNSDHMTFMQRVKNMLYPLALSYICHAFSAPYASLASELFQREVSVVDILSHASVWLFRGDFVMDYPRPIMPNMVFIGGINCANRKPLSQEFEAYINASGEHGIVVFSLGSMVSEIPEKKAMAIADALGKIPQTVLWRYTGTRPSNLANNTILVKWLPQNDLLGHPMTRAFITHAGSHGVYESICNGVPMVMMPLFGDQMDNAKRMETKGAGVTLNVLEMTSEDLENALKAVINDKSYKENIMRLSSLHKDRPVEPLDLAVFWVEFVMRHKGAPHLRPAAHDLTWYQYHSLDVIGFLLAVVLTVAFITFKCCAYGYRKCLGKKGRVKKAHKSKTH
Procedure: as §2, §3

Sequence of CYP1A2 (P05177 whole entry): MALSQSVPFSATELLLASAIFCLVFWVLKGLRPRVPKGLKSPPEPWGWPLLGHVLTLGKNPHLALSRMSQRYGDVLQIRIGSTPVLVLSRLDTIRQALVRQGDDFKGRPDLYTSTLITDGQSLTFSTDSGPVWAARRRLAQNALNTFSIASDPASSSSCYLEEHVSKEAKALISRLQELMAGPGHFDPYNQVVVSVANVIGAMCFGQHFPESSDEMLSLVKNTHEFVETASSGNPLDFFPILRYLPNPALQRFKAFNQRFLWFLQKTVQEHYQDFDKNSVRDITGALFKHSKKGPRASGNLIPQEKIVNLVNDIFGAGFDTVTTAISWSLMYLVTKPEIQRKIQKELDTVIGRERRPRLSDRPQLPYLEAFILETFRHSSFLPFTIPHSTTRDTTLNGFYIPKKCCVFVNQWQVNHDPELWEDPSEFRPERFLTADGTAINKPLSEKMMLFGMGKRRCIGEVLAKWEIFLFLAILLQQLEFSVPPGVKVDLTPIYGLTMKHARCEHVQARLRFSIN
Sequence of UGT2B7 (P16662 24-529): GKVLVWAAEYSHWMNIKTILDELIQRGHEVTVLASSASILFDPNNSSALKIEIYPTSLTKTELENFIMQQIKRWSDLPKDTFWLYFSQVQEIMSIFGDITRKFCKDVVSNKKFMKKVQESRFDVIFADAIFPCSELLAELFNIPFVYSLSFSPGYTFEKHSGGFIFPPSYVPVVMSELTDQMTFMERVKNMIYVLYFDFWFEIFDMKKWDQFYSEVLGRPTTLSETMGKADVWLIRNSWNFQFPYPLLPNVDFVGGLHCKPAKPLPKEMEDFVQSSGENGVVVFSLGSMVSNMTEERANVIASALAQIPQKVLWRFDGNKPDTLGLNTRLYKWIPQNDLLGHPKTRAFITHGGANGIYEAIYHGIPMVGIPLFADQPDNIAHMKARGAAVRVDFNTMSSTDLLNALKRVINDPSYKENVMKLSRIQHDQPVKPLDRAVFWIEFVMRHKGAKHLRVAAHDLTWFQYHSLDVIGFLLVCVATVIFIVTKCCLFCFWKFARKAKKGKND
Sequence of OATP1B3 (Q9NPD5 whole entry): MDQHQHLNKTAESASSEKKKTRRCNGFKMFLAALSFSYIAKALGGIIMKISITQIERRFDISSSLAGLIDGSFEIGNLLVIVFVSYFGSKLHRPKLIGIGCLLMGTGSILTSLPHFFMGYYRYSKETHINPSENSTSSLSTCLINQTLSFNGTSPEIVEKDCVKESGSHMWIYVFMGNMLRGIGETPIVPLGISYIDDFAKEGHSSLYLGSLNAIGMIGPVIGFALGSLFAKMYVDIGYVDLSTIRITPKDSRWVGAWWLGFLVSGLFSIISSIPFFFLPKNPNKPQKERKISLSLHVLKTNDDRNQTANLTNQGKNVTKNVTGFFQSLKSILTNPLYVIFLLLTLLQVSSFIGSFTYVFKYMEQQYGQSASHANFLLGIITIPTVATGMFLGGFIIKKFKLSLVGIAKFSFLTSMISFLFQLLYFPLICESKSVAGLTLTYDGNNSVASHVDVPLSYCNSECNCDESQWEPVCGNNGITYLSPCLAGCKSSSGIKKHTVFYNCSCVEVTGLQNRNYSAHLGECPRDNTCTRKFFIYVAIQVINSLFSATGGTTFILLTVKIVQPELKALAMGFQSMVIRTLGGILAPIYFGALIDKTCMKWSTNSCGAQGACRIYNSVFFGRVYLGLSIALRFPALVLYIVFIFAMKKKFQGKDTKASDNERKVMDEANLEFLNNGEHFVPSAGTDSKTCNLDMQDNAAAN

## CCCCCn1nc(C(=O)NC23CC4CC(CC(C4)C2)C3)c2ccccc21 [APINACA, N-(1-adamantyl)-1-pentyl-1H-indazole-3-carboxamide]
UGT2B7
  pIC50: < 4.00
UGT2B7; read-out: IC50 UGT2B7 naloxone 3-β-D-glucuronidation, with 30-min preincubation, pooled human liver microsomes, 30-min preincubation with UDPGA (○)
  pIC50: < 4.00
UGT1A9
  pKi: 5.23
UGT1A9; human liver microsomes, enzyme kinetics study
  mode of inhibition of UGT1A9-catalyzed mycophenolic acid glucuronidation: noncompetitively inhibited
OCT1
  pIC50: < 3.60
OATP1B3
  pIC50: < 3.60
CYP1A2
  pIC50: < 4.00
CYP1A2; read-out: IC50 (μM) With Preincubation, CYP1A2 phenacetin O-deethylase, ultrapooled human liver microsomes, 30-min preincubation with NADPH
  IC50: > 100 µM
UGT1A3
  pIC50: < 4.00
UGT1A3; read-out: IC50 UGT1A3 chenodeoxycholic acid glucuronidation, with 30-min preincubation, pooled human liver microsomes, 30-min preincubation with UDPGA (○)
  pIC50: < 4.00
